Laboratory results reported in US20240156902A1, “METHODS OF TREATING NEURODEGENERATIVE DISORDERS WITH INTRANASAL NF-KAPPAB ESSENTIAL MODIFIER (NEMO)-BINDING DOMAIN (NBD) PEPTIDE” (Rush University Medical Center, priority 2021, published 2024).
Like-named read-outs stand apart in the source and are kept apart here.

How the values were obtained:
NF-κB [1] = conditions: in vivo in the brain; cited from earlier work
NF-κB [2] = conditions: cultured brain cells; cited from earlier work
NF-κB [3] = assay: NF-κB activation in nigra of PFF-seeded A53T mice (acetylated p65 in microglia); assay type: in vivo, mouse; conditions: intranasal 0.1 mg/kg/d for 1 month
Method: (§1) Following 2 months of surgery, animals received wild type NBD (wtNBD) at a dose of 0.1 mg/kg body weight/day intranasally. After 1 month of wtNBD treatment, behavioral analyses were performed followed by immunohistochemistry and different biochemical experiments.
FIG. 2A and FIG. 2B show the results following intranasal administration of wtNBD peptide inhibiting NF-κB activation in the nigra of PFF-seeded mouse model of Lewy body diseases. A53T transgenic mice were seeded with PFF bilaterally and following 2 months of brain surgery, animals were given intranasal administration of 0.1 mg/kg wtNBD peptide daily. Activation of NF-κB in nigra was monitored by evaluating the level of acetylated (K310) p65 in Ibal+ve microglia in different groups of mice. Marked up-regulation of microglial acetylated p65 level in the SN of PFF-seeded mice was found compared to the PBS-injected mice (FIG. 2A and FIG. 2B). […] Statistical significance was determined by one-way ANOVA followed by Tukey's multiple comparison tests. *p<0.05, ***p<0.001 indicate significance compared to respective groups. Values are given as mean±SEM (n=4 per group). […]
(§2) Following 1 month of wtNBD administration, NF-κB activation in substantia nigra (SN) and spreading of α-syn in both SN and motor cortex were monitored. […]

[4] = test system: PFF-seeded A53T transgenic mice; assay: Locomotor activities of PFF-seeded A53T mice (open field test, rotarod); assay type: in vivo, mouse; conditions: intranasal 0.1 mg/kg/d for 1 month
Method: (§3) FIG. 4A-L depicts the results following intranasal administration of wtNBD peptide reducing Parkinsonian pathology in PFF-seeded mouse model of Lewy body diseases. PFF-seeded A53T animals were given intranasal administration of 0.1 mg/kg wtNBD peptide daily for one month Parkinsonian pathology was evaluated by TH immunohistochemistry of nigral sections (FIG. 4A), immunoblotting of total TH level in SN (FIG. 4B and FIG. 4C), assessing striatal level of dopamine (DA), and its metabolites 3,4-dihydroxyphenyl acetate (DOPAC), homovanillic acid (HVA) (FIG. 4D-F). Behavioral analyses of animals were performed by open field test (FIG. 4G), where movement parameters such as distance (FIG. 4H), velocity (FIG. 4I), cumulative duration (FIG. 4J) and rearings (FIG. 4K) were recorded. Feet movement was analysed by rotarod test (FIG. 4L). Statistical significance was determined by one-way ANOVA followed by Tukey's multiple comparison tests. *p<0.05, **p<0.01, ***p<0.001 indicate significance compared to respective groups. Values are given as mean±SEM (n=4 per group).
(§4) The wtNBD peptide (SEQ ID NO: 4) was solubilized in normal saline in such a way so that each mouse receives 0.1 mg/kg of body weight NBD peptide in 2.5 μl of saline. […]
Next, the effect of intranasal wtNBD on PFF-induced Parkinsonian pathologies was monitored. […]

dopaminergic neurons = assay: Parkinsonian pathology in PFF-seeded A53T mice (TH immunohistochemistry, TH immunoblot, striatal neurotransmitters); assay type: in vivo, mouse; conditions: intranasal 0.1 mg/kg/d for 1 month
Method: as §3
The wtNBD peptide (SEQ ID NO: 4) was solubilized in normal saline in such a way so that each mouse receives 0.1 mg/kg of body weight NBD peptide in 2.5 μl of saline. Then 2.5 μl of wtNBD solution was administered in mice through each nostril every day for a total of 30 days. Mice were hold in supine condition while administering wtNBD solution. See Rangasamy et al. “Selective disruption of TLR2-MyD88 interaction inhibits inflammation and attenuates Alzheimer's pathology” (2018) J Clin Invest 128, 4297-4312. Intranasal treatment was started for preformed α-syn fibril (PFF) or PBS injected A53T animals at the age of 5 months (2 months following the brain surgery) for the next 30 days. Aged A53T animals (8 months old) were also treated with wtNBD peptides for 1 month followed by behavioural tests and other experiments at the age of 9 months.
Next, the effect of intranasal wtNBD on PFF-induced Parkinsonian pathologies was monitored. […] Locomotor deficit was also evident by rotarod analysis (FIG. 4L).

α-syn = α-syn spreading from striatum to nigra and motor cortex in PFF-seeded A53T mice (pSyn129 immunostaining, α-syn immunoblot); assay type: in vivo, mouse; conditions: intranasal 0.1 mg/kg/d for 1 month
Method: as §1
Propagation of α-syn in PFF-seeded A53T mouse brain was monitored in SN by pSyn129 immunostaining and relative intensity measurement (FIG. 3A, FIG. 3B) and also by immunoblotting total α-syn in Triton X-100 soluble and insoluble fractions (FIG. 3C, FIG. 3D). The ratio of α-syn to actin is shown in the diagrams (FIG. 3E, FIG. 3F). Level of pSyn129 in motor cortex was assessed by immunohistochemistry (FIG. 3G, FIG. 3H). Two sections from each brain were used for immunostaining and pSyn129 specific intensity was analysed by Fiji. One-way ANOVA followed by Tukey's multiple comparison tests was conducted for statistical analyses. **p<0.01, ***p<0.001 indicate significance compared to respective groups. Values are given as mean±SEM (n=4 animals per group).
as §4, §2

[5] = in vivo; cited from earlier work

Substance | block of the function of NF-κB (NF-κB [1]) | block of the function of NF-κB (NF-κB [2]) | microglial acetylated (K310) p65 level in the SN (NF-κB [3]) | movement deficits (open field distance, velocity, cumulative duration, rearing; rotarod) [4] | nigral TH neurons (dopaminergic neurons) | nigral TH protein level (dopaminergic neurons) | striatal DA level (dopaminergic neurons) | level of pSyn129 in nigral neurons (relative optical density in SN) (α-syn; PFF-seeded A53T mice) | accumulation of pSyn129 in cortical neurons (motor cortex) (α-syn; compared to saline-treated PFF-seeded mice) | entry into the brain [5]
LDWSWL [truncated hexapeptide of the wtNBD] | sufficient to block | sufficient to block | – | – | – | – | – | – | – | –
DRQIKIWFQNRRMKWKKLDWSWL (DRQIKWFQNRRMKWKKLDWSWL) [wtNBD] | – | – | significantly decreased | significantly inhibited | significantly protected | significantly protected | significantly protected | drastically reduced | reduced accumulation | enters into the brain
